Source: patent US20230295159A1, “ATX INHIBITOR, AND PREPARATION METHOD THEREFOR AND USE THEREOF” (SUZHOU ARK BIOPHARMACEUTICAL CO., LTD., priority 2020, published 2023)
pIC50: −log10 of the molar value. Where two headings read alike, the source gives them in different places. Blank lines part the entries; values can stand above or below the molecule they belong to.

Columns and labels:
[1] = system: Chinese hamster ovary cells (CHO-WBL); assay: In vitro micronucleus assay with Chinese hamster ovary cells
Experimental: In the major micronucleus assay, CHO-WBL cells were exposed to at least 3 concentrations of the test object, while vehicle control group and positive control group were set up, with 2 replicated wells for each dose group. In inactivated test system, the administration lasted for 3 and 24 hours, and in S9 activated test system, the exposure to the test object lasted for 3 hours.
When choosing the highest dose for micronucleus frequency assay, the cytotoxicity of dose group of the test object should not substantially exceed 50% of that of the corresponding vehicle control group.
On the premise that the test is valid, the test results are evaluated according to the following criteria:
If the test object simutaneously meets the following criteria, it can be considered as positive:
A significant increase in micronucleus frequency is observed in one or more concentration groups.
If none of the above three points is met, the test object can be considered as negative.

ATX enzyme = ATX enzyme (Homo sapiens (Human), UniProt Q13822); assay: ATX enzyme activity inhibition assay; format: biochemical; conditions: 16:0-LPC substrate, Amplex UltraRed fluorescence
Experimental: The tested compounds were dissolved with dimethyl sulfoxide (DMSO) to prepare 20 mM of stock solutions, the stock solutions were subjected to 4-fold gradient dilutions with DMSO, with the initial concentration of 20 µM and a total of 8 concentration gradients. 20 nL of diluted compound was transferred to a 384-well plate using Echo 550 and 5 µL of ATX enzyme solution formulated with 4 × Tris-HCl reaction buffer to the well, then the 384-well plate was centrifuged at 1000 rpm for 1 min and […] pre-incubated at room temperature for 15 min. Subsequently, 5 µL of 16:0-LPC foumulated with the above 4 × reaction buffer and 10 µL of assay solution containng 2 × Amplex UltraRed reagent, choline oxidase and horseradish peroxidase (HRP) foumulated with the same reaction buffer were added to each well, then the 384-well plate was centrifugated at 1000 rpm for 1 min. The fluorescence signals were read at an excitation wavelength of 530 nm and an emission wavelength of 590 nm by Synergy 2 microplate reader. The inhibition rate of the compound against enzyme reaction was calculated according to the fluorescence intensity ratio, and IC50 of the compound was analysed and calculated by GraphPad Prism 5 software.

[2] = Rat pharmacokinetic study; format: in vivo, SD rat; conditions: for half-life: read-out: t½ (converted)
Experimental: SD rat pharmacokinetic study was performed on several compounds in Examples of the present disclosure through a single intravenous injection (IV, at a dose of 2 mg/kg) and a single oral administration (PO, at a dose of 10 mg/kg), and blood samples were taken before administration and 5 min, 15 min, 30 min, 1 h, 2 h, 4 h, 8 h, 12 h and 24 h after administration, respectively, to determine the plasma concentration of the compound for assay. The pharmacokinetic data of control compound and the compounds in Examples 17, 26, 28 and 29 of the present disclosure in rat plasma are shown in Tables 4-8.

[3] = 3-hour administration with metabolic activation, 5 µg/ml

Structure (SMILES): O=P1(N(CCCl)CCCl)NCCCO1 (stereo not shown) [Cyclophosphamide monohydrate]
% binuclear cells containing micronucleus [1, 3]: 20.8%

pIC50 (ATX enzyme): 7.96
Structure (SMILES): CCN(c1nc(-c2ccc(F)cc2)c(C#N)s1)c1c2nc(-c3cnc(N4CCCCS4(=O)=O)nc3)ccc2nn1CC [Example 21, 2-((5-(2-(1,1-dioxido-1,2-thiazinan-2-yl)pyrimidin-5-yl)-2-ethyl-2H-pyrazolo[4,3-b]pyridin-3-yl)(ethyl)amino)-4-(4-fluorophenyl)thiazole-5-carbonitrile]

pIC50 (ATX enzyme): 7.32
Structure (SMILES): CCc1nc2ccc(-c3ccc(CC(=O)N4CC(O)C4)nn3)cn2c1N(C)c1nc(-c2ccc(F)cc2)c(C#N)s1 [Example 5, 2-((2-ethyl-6-(6-(2-(3-hydroxyazetidin-1-yl)-2-oxoethyl)pyridazin-3-yl)imidazo[1,2-a]pyridin-3-yl)(methyl)amino)-4-(4-fluorophenyl)thiazole-5-carbonitrile]

pIC50 (ATX enzyme): 7.82
Structure (SMILES): CCc1nn2ccc(-c3cnc(N4CCCS4(=O)=O)nc3)nc2c1N(CC)c1nc(-c2ccc(F)cc2)c(C#N)s1 [Example 18, 2-((5-(2-(1,1-dioxidoisothiazolidin-2-yl)pyrimidin-5-yl)-2-ethyl-pyrazolo[1,5-a]pyrimidin-3-yl)(ethyl)amino)-4-(4-fluorophenyl)thiazole-5-carbonitrile]

pIC50 (ATX enzyme): 7.55
Structure (SMILES): CCc1nc2ccc(-c3cnc(C(C)(C)C(=O)N4CC(O)C4)cn3)cn2c1N(C)c1nc(-c2ccc(F)cc2)c(C#N)s1 [Example 9, 2-((2-ethyl-6-(5-(1-(3-hydroxyazetidin-1-yl)-2-methyl-1-oxopropan-2-yl)pyrazin-2-yl)imidazo[1,2-a]pyridin-3-yl)(methyl)amino)-4-(4-fluorophenyl)thiazole-5-carbonitrile]

pIC50 (ATX enzyme): 7.38
Structure (SMILES): CCc1nc2ccc(-c3cnc(CC(=O)NCC4CCC(=O)N4)cn3)cn2c1N(C)c1nc(-c2ccc(F)cc2)c(C#N)s1 (stereo not shown) [Example 14, 2-(5-(3-((5-cyano-4-(4-fluorophenyl)thiazol-2-yl)(methyl)amino)-2-ethylimidazo[1,2-a]pyridin-6-yl)pyrazin-2-yl)-N-((5-oxopyrrolidin-2-yl)methyl)acetamide]

pIC50 (ATX enzyme): 7.96
Structure (SMILES): CCN(c1nc(-c2ccc(F)cc2)c(C#N)s1)c1c2nc(-c3cnc(N4CC(CO)C4)nc3)ccc2nn1CC [Example 24, 2-(ethyl(2-ethyl-5-(2-(3-(hydroxymethyl)azetidin-1-yl)pyrimidin-5-yl)-2H-pyrazolo[4,3-b]pyridin-3-yl)amino)-4-(4-fluorophenyl)thiazole-5-carbonitrile]

pIC50 (ATX enzyme): 7.60
Structure (SMILES): CCc1nc2ccc(-c3cnc(CC(=O)N4CC[C@H](O)C4)cn3)cn2c1N(C)c1nc(-c2ccc(F)cc2)c(C#N)s1 [Example 11, (S)-2-((2-ethyl-6-(5-(2-(3-hydroxypyrrolidin-1-yl)-2-oxoethyl)pyrazin-2-yl)imidazo[1,2-a]pyridin-3-yl)(methyl)amino)-4-(4-fluorophenyl)thiazole-5-carbonitrile]

Cl_F_pred ([2]; IV 2 mg/kg): 0.45 L/h/kg | Cl_F_pred ([2]; PO 10 mg/kg): 3.93 L/h/kg | F ([2]; PO 10 mg/kg vs IV 2 mg/kg): 12% | AUC(0-inf) ([2]; SD, plasma, IV 2 mg/kg): 4460 ng·h/mL | AUC(0-t) ([2]; SD, plasma, IV 2 mg/kg): 4460 ng·h/mL | Cmax ([2]; SD, plasma, IV 2 mg/kg): 8340 ng/mL | half-life ([2]; SD, plasma, IV 2 mg/kg): 90 min | AUC(0-inf) ([2]; SD, plasma, PO 10 mg/kg): 2700 ng·h/mL | AUC(0-t) ([2]; SD, plasma, PO 10 mg/kg): 2680 ng·h/mL | Cmax ([2]; SD, plasma, PO 10 mg/kg): 512 ng/mL | Tmax ([2]; SD, plasma, PO 10 mg/kg): 1 h | half-life ([2]; SD, plasma, PO 10 mg/kg): 240 min
Structure (SMILES): CCc1nc2c(C)cc(N3CCN(CC(=O)N4CC(O)C4)CC3)cn2c1N(C)c1nc(-c2ccc(F)cc2)c(C#N)s1 [GLPG1690]
% binuclear cells containing micronucleus ([1]; 3-hour administration with metabolic activation, 2 µg/ml): 1.55% | % binuclear cells containing micronucleus [1, 3]: 1.65% | % binuclear cells containing micronucleus ([1]; 3-hour administration with metabolic activation, 10 µg/ml): 1.70% | % binuclear cells containing micronucleus ([1]; 3-hour administration with metabolic activation, 30 µg/ml): 1.85% | % binuclear cells containing micronucleus ([1]; 3-hour administration without metabolic activation, 2 µg/ml): 1.90% | % binuclear cells containing micronucleus ([1]; 3-hour administration without metabolic activation, 5 µg/ml): 1.85% | % binuclear cells containing micronucleus ([1]; 3-hour administration without metabolic activation, 10 µg/ml): 1.65% | % binuclear cells containing micronucleus ([1]; 3-hour administration without metabolic activation, 30 µg/ml): 1.85% | % binuclear cells containing micronucleus ([1]; 24-hour administration without metabolic activation, 2 µg/ml): 1.95% | % binuclear cells containing micronucleus ([1]; 24-hour administration without metabolic activation, 4 µg/ml): 1.65% | % binuclear cells containing micronucleus ([1]; 24-hour administration without metabolic activation, 6 µg/ml): 1.60% | % binuclear cells containing micronucleus ([1]; 24-hour administration without metabolic activation, 7 µg/ml): 4.85% | % binuclear cells containing micronucleus ([1]; 24-hour administration without metabolic activation, 8 µg/ml): 14.4% | potential to induce micronucleus formation in CHO-WBL cells ([1]; overall verdict over all administration series): positive
